Measured values: patent publication US20230114107A1, “COMBINATION ANTI-CANCER THERAPIES WITH INDUCERS OF IRON-DEPENDENT CELLULAR DISASSEMBLY” (Flagship Pioneering Innovations V, Inc., priority 2019, published 2023)
Entries after “also recorded” stand apart in the source; their conditions may differ.

Experiments:
[1] = system: Caki-1 renal cell carcinoma cells; assay: Viability of Caki-1 renal cell carcinoma cells after treatment; format: cell-based; conditions: 24 hours
[2] = system: Jurkat T cell leukemia cells; assay: Viability of Jurkat T cell leukemia cells after treatment; format: cell-based; conditions: various doses, 24 hours; FIG. 5A
[3] = system: NFKB reporter in THP1-Dual cells; assay: NFKB reporter activity in THP1-Dual monocytes co-cultured with treated Jurkat cells; format: cell-based, human; conditions: Jurkat cells treated 24 hours, co-culture 24 hours; vs DMSO; FIG. 5B
Method: (§1) Jurkat T cell leukemia cells were treated with either control (DMSO) or various doses of RSL3, for 24 hours prior to co-culture with THP1-Dual cells for an additional 24 hours. RSL3 was purchased from Selleckchem (Houston, Tex.) and dissolved in DMSO. Subsequently, the THP1 supernatants were assessed for NFKB or IRF reporter activity.
(§2) Jurkat cells were acquired from ATCC and THP1-Dual cells acquired from InvivoGen (San Diego, Calif.). Both cell types were cultured in 96-well plates for the duration of the assay. 100,000 Jurkat cells were plated 24 hours prior to dosing with RSL3, with a final DMSO concentration of 0.5%. 24 hours post-treatment, THP1-Dual cells (25,000 cells/well) were added to the Jurkat cells. 24 hours later, 30 μl of supernatant was mixed with either 200 μl QuantiBlue (InvivoGen, San Diego, Calif.) or 50 μl QuantiLuc and absorbance or luminescence was recorded on a Molecular Devices plate reader.

[4] = system: A20 B-cell leukemia cells; assay: Viability of A20 B-cell leukemia / lymphoma cells after treatment; format: cell-based; conditions: 24 hours
[5] = system: NFKB reporter in THP1-Dual cells; assay: NFKB reporter activity in THP1-Dual monocytes co-cultured with treated A20 cells; format: cell-based, human
Method: as §1, with “A20 B-cell” for “Jurkat T cell”
as §2, with “A20” for “Jurkat”, “50,000 A20” for “100,000 Jurkat”
A20 lymphoma cells were treated with various doses (e.g. 0.002, 0.005, 0.014, 0.041, 0.123, 0.370, 1.111, 3.333 and 10 μM) of a GPX4 inhibitor (RSL3, ML162 or ML210) in the presence or absence of 1 μM Ferrostatin-1 for 24 hours. ML162 was purchased from Cayman Chemical Company Inc and resuspended in DMSO. ML210 was purchased from Sigma-Aldrich and resuspended in DMSO. A20 lymphoma cells were also treated with DMSO as a negative control. After treatment with DMSO or a GPX4 inhibitor for 24 hours, the A20 lymphoma cells were co-cultured with THP1-Dual cells for an additional 24 hours. Subsequently, the THP1 supernatant was assessed for NFKB reporter activity. A20 cells were acquired from ATCC and THP1-Dual cells were acquired from InvivoGen (San Diego, Calif.). Both cell types were cultured in 96-well plates for the duration of the assay.

[6] = system: IRF reporter in THP1-Dual cells; assay: IRF reporter activity in THP1-Dual monocytes co-cultured with treated A20 cells; format: cell-based, human; conditions: A20 cells treated 24 hours, co-culture 24 hours; vs DMSO; FIG. 6C
Method: as §2, with “A20 B-cell leukemia cells were treated with either control (DMSO) or various doses of RSL3, for 24 hours prior to co-culture with THP1-Dual cells for an additional 24 hours. RSL3 was purchased from Selleckchem (Houston, Tex.) and dissolved in DMSO. Subsequently, the THP1 supernatants were assessed for NFKB or IRF reporter activity. A20 cells” for “Jurkat cells”, “assay. 50,000 A20” for “assay. 100,000 Jurkat”, “the A20” for “the Jurkat”

A375-DR cells = assay: CellTiter-Glo 2.0 viability of dabrafenib-resistant melanoma cells; format: cell-based, human; conditions: graded concentrations, 72 hours; vs non-resistant parental cell line; FIG. 16A
Method: (§3) The effects of the ferroptosis inducer RSL3 on cancer cell lines with acquired resistance to standard of care therapeutics was assessed in vitro. Human melanoma cell lines with acquired resistance to BRAF inhibitors (A375-DR or A375-VR) were generated by propagating parental A375 cells in increasing concentrations of dabrafenib or vemurafenib (10 nM-100 μM) over 8 weeks. These resistant melanoma cell lines were further maintained in growth medium containing 5 μM dabrafenib or vemurafenib. BT-474 Clone 5, a human breast cancer cell line that is resistant to trastuzumab, was purchased from American Type Culture Collection (ATCC). 5,000 A375-DR, A375-VR, or BT-474 clone 5 cells were plated per well in flat-bottom 96 well plates and incubated overnight. Cells were then dosed with graded concentrations of RSL3 for 72 hours, and cellular viability was assessed using the CellTiter-Glo 2.0 Cell Viability Assay. The experiments were run in triplicate.

A375-VR cells = assay: CellTiter-Glo 2.0 viability of vemurafenib-resistant melanoma cells; format: cell-based, human; conditions: graded concentrations, 72 hours; vs non-resistant parental cell line; FIG. 16B
Method: as §3

BT-474 Clone 5 cells = assay: CellTiter-Glo 2.0 viability of trastuzumab-resistant breast cancer cells; format: cell-based, human; conditions: graded concentrations, 72 hours; vs non-resistant parental cell line; FIG. 16C
Method: as §3

**Q.** Which “viability of Caki-1 renal carcinoma cells, dose dependence” value ([1]; GPX4 inhibitor various doses, FIG. 13A, 14A) does the source give for `COC(=O)c1ccc([C@H]2c3[nH]c4ccccc4c3C[C@H](C(=O)OC)N2C(=O)CCl)cc1` [RSL3] here?
**A.** The value was “decreased viability of the cells in a dose dependent manner”.

**Q.** What about the “viability of Caki-1 cells” value ([1]; various doses, FIG. 3A, 4A) of the same molecule?
**A.** The value was “negatively affected the viability”.

**Q.** And the “viability of Jurkat T cell leukemia cells” value [2]?
**A.** The value was “negatively affected the viability”.

**Q.** What about the “NFKB signaling in THP1 monocytes” value [3] of the same molecule?
**A.** The value was “elicited NFKB signaling in THP1 monocytes”.

**Q.** What about the “viability of A20 lymphoma cells, dose dependence” value ([4]; GPX4 inhibitor 0.002-10 μM, FIG. 10A, 11A, 12A) of the same molecule?
**A.** Its value is “decreased viability of the cells in a dose dependent manner”.

**Q.** What about the “viability of A20 B cell leukemia cells” value ([4]; various doses, FIG. 6A) of the same molecule?
**A.** The value was “negatively affected the viability”.

**Q.** And the “NFKB signaling in THP1 monocytes” value ([5]; A20 cells treated 24 hours, co-culture 24 hours, vs DMSO, FIG. 6B)?
**A.** The value was “elicited”.

**Q.** And the “NFKB activity in THP1 cells, dose dependence” value ([5]; A20 lymphoma cells treated with GPX4 inhibitor, FIG. 10B, 11B, 12B)?
**A.** Its value is “increased NFKB activity in THP1 cells in a dose dependent manner”.

**Q.** What about the “IRF signaling in THP1 monocytes” value [6] of the same molecule?
**A.** The value was “elicited”.

**Q.** What about the “sensitivity of A375-DR cells to RSL3-induced ferroptosis (cellular viability)” value (A375-DR cells) of the same molecule?
**A.** The value was “sensitive to RSL3-induced ferroptosis; also recorded: more sensitive to RSL3-induced ferroptosis than the corresponding non-resistant parental cell line”.

**Q.** What about the “sensitivity of A375-VR cells to RSL3-induced ferroptosis (cellular viability)” value (A375-VR cells) of the same molecule?
**A.** Its value is “sensitive to RSL3-induced ferroptosis; also recorded: more sensitive to RSL3-induced ferroptosis than the corresponding non-resistant parental cell line”.

**Q.** And the “sensitivity of BT-474 clone 5 cells to RSL3-induced ferroptosis (cellular viability)” value (BT-474 Clone 5 cells)?
**A.** Its value is “sensitive to RSL3-induced ferroptosis; also recorded: more sensitive to RSL3-induced ferroptosis than the corresponding non-resistant parental cell line”.
